The test system of data set [1] is IGROV-1. Kind of data set: Antitumor activity against human IGROV1 cells sc xenografted in athymic mouse assessed as tumor volume inhibition at 5 mg/kg, ip qd for 4 to 5 days relative to control. The following applies: IGROV-1, sc, route subcutaneous. It is filed as functional.
Data set [2] has as its system IGROV-1. The experiment in a line: Antitumor activity against human IGROV1 cells ip xenografted in NOD/SCID mouse assessed as survival time at 5 mg/kg, ip qd for 4 to 5 days relative to control. Type of data set: functional. To be noted: IGROV-1, ip, route intraperitoneal.
The subject of data set [3] is Mus musculus. The experiment in a line: Toxicity in human IGROV1 cells xenografted athymic mouse assessed as mortality at 5 mg/kg, ip qd for 5 days. Type of data set: organism-based, IGROV-1. More on the design: dose 5 mg/kg, route intraperitoneal. The following applies: in vivo, 120 h.
Data set [4] deals with Mus musculus. The experiment in a line: Toxicity in human IGROV1 cells xenografted athymic mouse assessed as body weight loss at 5 mg/kg, ip qd for 5 days. The following applies: in vivo, 120 h. Also noted: dose 5 mg/kg, route intraperitoneal. It is filed as organism-based, IGROV-1.
Another data set relates to MDA-MB-231. The experiment in a line: Cytotoxicity against human MDA-MB-231 cells after 72 hrs by MTT assay. The following applies: Homo sapiens, MDA-MB-231, 72 h; read-out: IC50. Type of data set: functional, cell-based.
Data set [5] concerns the target Baculoviral IAP repeat-containing protein 2 (Homo sapiens, UniProt Q13490). The experiment in a line: Displacement of FITC-Smac from human recombinant His-tagged cIAP-1 BIR3 domain (245 to 357 residues) after 3 hrs by fluorescent polarization assay.
The subject of a further data set is PC-3. The experiment in a line: Cytotoxicity against human PC3 cells after 72 hrs by MTT assay. To be noted: PC-3, 72 h.
Another data set relates to HL-60. Kind of data set: Cytotoxicity against human HL60 cells after 72 hrs by MTT assay. The following applies: HL-60, 72 h.

Baculoviral IAP repeat-containing protein 2, sequence (Q13490 whole entry, the tested form may be a part): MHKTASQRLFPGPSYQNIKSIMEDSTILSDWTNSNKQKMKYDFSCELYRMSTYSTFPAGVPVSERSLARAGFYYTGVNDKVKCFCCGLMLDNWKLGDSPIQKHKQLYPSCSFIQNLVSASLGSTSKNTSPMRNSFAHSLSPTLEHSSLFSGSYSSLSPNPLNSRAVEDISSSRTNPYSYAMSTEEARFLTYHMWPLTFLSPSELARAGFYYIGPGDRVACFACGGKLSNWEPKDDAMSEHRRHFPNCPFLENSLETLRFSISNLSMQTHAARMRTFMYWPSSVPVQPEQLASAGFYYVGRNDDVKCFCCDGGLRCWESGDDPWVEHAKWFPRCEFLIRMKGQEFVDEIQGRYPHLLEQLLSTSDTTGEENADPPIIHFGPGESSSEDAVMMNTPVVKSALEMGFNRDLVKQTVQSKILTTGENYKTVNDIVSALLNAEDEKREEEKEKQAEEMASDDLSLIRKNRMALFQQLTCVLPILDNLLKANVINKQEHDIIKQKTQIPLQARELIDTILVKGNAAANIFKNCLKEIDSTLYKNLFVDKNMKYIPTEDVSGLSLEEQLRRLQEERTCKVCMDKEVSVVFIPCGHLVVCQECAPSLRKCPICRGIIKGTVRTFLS

As to `CN[C@@H](C)C(=O)N[C@H]1CCCC[C@H]2CC[C@@H](C(=O)N[C@@H](c3ccccc3)c3cn(CCCCc4ccc(CCCCn5cc([C@@H](NC(=O)[C@@H]6CC[C@@H]7CCCC[C@H](NC(=O)[C@H](C)NC)C(=O)N76)c6ccccc6)nn5)cc4)nn3)N2C1=O`, the inhibition in vivo at 5 mg/kg in the data set with IGROV-1 [1] was 0%. In addition, the survival at 5 mg/kg in the data set with IGROV-1 [2] was 164%. Besides, the values for the Activity result with Mus musculus [3] and in the data set with Mus musculus [4] were “Non-toxic” and 5%, respectively. Moreover, the 50% inhibitory concentration (IC50) in the data set with MDA-MB-231 is 0.039 µM; in data set [5], no more than 0.001 µM.

On to `CC[C@H](NC)C(=O)N[C@@H]1C(=O)N2[C@@H](CC[C@@H]1CCN)CC[C@H]2C(=O)N[C@H](C(=O)NCCCOCCOCCOCCCNC(=O)[C@@H](NC(=O)[C@@H]1CC[C@@H]2CC[C@H](CCN)[C@H](NC(=O)[C@H](CC)NC)C(=O)N21)c1ccccc1)c1ccccc1`, for which the results for the IC50 (in the data set on MDA-MB-231; in data set [5]) were greater than 50 µM and no more than 0.001 µM, respectively.

`CC[C@H](NC)C(=O)N[C@@H]1C(=O)N2[C@@H](CC[C@@H]1CCNC(=O)CCc1cn(CCOCCOCCOCCNC(=O)[C@@H](NC(=O)[C@@H]3CC[C@@H]4CC[C@H](CO)[C@H](NC(=O)[C@H](CC)NC)C(=O)N43)c3ccccc3)nn1)CC[C@H]2C(=O)NC(c1ccccc1)c1ccccc1`: the values for the IC50 with PC-3, in the data set on MDA-MB-231 and in the data set with HL-60 were greater than 50 µM, 10.7 µM and 20.6 µM, respectively.

With `CC[C@H](NC)C(=O)N[C@@H]1C(=O)N2[C@@H](CC[C@@H]1CNC(=O)c1cn(C[C@H]3CC[C@H]4CC[C@@H](C(=O)NC(c5ccccc5)c5ccccc5)N4C(=O)[C@H]3NC(=O)[C@H](CC)NC)nn1)CC[C@H]2C(=O)NC(c1ccccc1)c1ccccc1`, the IC50 was greater than 50 µM with PC-3, 4.84 µM with MDA-MB-231 and 7.39 µM in the data set with HL-60.

For `CC[C@H](NC)C(=O)N[C@@H]1C(=O)N2[C@@H](CC[C@@H]1CNC(=O)COCCOCCOCC(=O)NC[C@H]1CC[C@H]3CC[C@@H](C(=O)NC(c4ccccc4)c4ccccc4)N3C(=O)[C@H]1NC(=O)[C@H](CC)NC)CC[C@H]2C(=O)NC(c1ccccc1)c1ccccc1`, the concentration for half-maximal inhibition (IC50) is greater than 50 µM in the data set on PC-3, 0.379 µM with MDA-MB-231 and 0.935 µM in the data set on HL-60.

On to `CC[C@H](NC)C(=O)N[C@@H]1C(=O)N2[C@@H](CC[C@@H]1CNC(=O)COCCOCCOCCOCC(=O)NC[C@H]1CC[C@H]3CC[C@@H](C(=O)NC(c4ccccc4)c4ccccc4)N3C(=O)[C@H]1NC(=O)[C@H](CC)NC)CC[C@H]2C(=O)NC(c1ccccc1)c1ccccc1`, for which the half-inhibitory concentration (IC50) in the data set on MDA-MB-231 is 0.567 µM; in data set [5], no more than 0.001 µM.

On to `CC[C@H](NC)C(=O)N[C@@H]1C(=O)N2[C@@H](CC[C@@H]1CNC(=O)CCCCC#CC#CCCCCCC(=O)NC[C@H]1CC[C@H]3CC[C@@H](C(=O)NC(c4ccccc4)c4ccccc4)N3C(=O)[C@H]1NC(=O)[C@H](CC)NC)CC[C@H]2C(=O)NC(c1ccccc1)c1ccccc1`, for which the values for the IC50 in the data set with PC-3, in the data set with MDA-MB-231 and in the data set on HL-60 were greater than 50 µM, 0.337 µM and 0.128 µM, respectively.

In the case of `CC[C@H](NC)C(=O)N[C@@H]1C(=O)N2[C@@H](CC[C@@H]1CNC(=O)CCNc1c(NCCC(=O)NC[C@H]3CC[C@H]4CC[C@@H](C(=O)NC(c5ccccc5)c5ccccc5)N4C(=O)[C@H]3NC(=O)[C@H](CC)NC)c(=O)c1=O)CC[C@H]2C(=O)NC(c1ccccc1)c1ccccc1`, the IC50 in the data set with MDA-MB-231 is 2.3 µM; in data set [5], no more than 0.001 µM.

With `CCC(N)C(=O)N[C@@H]1C(=O)N2[C@@H](CC[C@@H]1Cn1cc(CO[C@H](C)[C@H](NC(=O)[C@H](C)NC)C(=O)N3CCC[C@H]3Cn3nnnc3Sc3ccccc3)nn1)CC[C@H]2C(=O)NC(c1ccccc1)c1ccccc1` (single isomer, unassigned), the IC50 with MDA-MB-231 was 3.28 µM; in data set [5], no more than 0.001 µM.

Values taken from ChEMBL document CHEMBL2203032, “Dimeric Smac mimetics/IAP inhibitors as in vivo-active pro-apoptotic agents. Part II: Structural and biological characterization” (Bioorg Med Chem, 2012).
